The values below are quoted from earlier work in PMC4411882, “Developmental Potential for Endomorphin Opioidmimetic Drugs” (International Journal of Medicinal Chemistry, 2012).

One series addresses T1, δ-opioid receptor (MVD) (Mus musculus, UniProt P32300).
T1 construct: gene Oprd1; mouse vas deferens (MVD) bioassay
Also noted: species or system mouse vas deferens. An excerpt: (§1) Therefore, we substituted hydrophobic groups in lieu of the phenethyl group to develop the class of H-Dmt-Pro-Phe-NH-X ligands (Figure 1).

Another series addresses δ-opioid receptor (Rattus norvegicus, UniProt P33533). Also noted: gene Oprd1; rat brain P2 synaptosomal preparations; species or system rat brain P2 synaptosomal preparations. The settings on record: read-out: Kiδ.
The next series has as its target μ-opioid receptor (Rattus norvegicus, UniProt P33535). Set-up: gene Oprm1; rat brain P2 synaptosomal preparations; species or system rat brain P2 synaptosomal preparations. The settings on record: read-out: Kiμ.
Another series has as its target T2, μ-opioid receptor (GPI) (Cavia porcellus, UniProt P97266).
T2 construct: gene OPRM1; guinea pig ileum (GPI) bioassay
Set-up: species or system guinea pig ileum.
Description: as §1

T2 sequence (P97266 whole entry): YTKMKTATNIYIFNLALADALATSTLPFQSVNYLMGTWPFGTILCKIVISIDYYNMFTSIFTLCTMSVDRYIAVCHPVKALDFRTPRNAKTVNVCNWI
T1 sequence (P32300 whole entry): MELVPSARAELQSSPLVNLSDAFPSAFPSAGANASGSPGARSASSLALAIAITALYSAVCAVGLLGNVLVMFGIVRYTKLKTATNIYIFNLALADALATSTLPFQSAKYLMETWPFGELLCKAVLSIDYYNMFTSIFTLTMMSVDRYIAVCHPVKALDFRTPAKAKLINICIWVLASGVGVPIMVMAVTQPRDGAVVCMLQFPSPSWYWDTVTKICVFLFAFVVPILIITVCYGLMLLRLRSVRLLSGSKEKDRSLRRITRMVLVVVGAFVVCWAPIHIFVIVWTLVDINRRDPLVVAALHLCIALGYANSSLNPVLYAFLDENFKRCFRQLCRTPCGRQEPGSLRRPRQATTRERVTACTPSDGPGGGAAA
Sequence of δ-opioid receptor (P33533 whole entry): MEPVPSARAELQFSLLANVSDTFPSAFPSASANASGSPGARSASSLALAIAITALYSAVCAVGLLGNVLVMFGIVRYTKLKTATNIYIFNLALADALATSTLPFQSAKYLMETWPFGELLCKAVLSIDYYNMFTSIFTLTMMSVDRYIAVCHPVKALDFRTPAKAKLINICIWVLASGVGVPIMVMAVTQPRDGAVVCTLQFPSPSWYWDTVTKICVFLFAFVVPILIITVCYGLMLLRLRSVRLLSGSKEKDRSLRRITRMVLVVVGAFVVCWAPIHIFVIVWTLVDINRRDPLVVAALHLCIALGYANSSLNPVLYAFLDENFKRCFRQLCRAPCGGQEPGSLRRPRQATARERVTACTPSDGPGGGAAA
Sequence of μ-opioid receptor (P33535 whole entry): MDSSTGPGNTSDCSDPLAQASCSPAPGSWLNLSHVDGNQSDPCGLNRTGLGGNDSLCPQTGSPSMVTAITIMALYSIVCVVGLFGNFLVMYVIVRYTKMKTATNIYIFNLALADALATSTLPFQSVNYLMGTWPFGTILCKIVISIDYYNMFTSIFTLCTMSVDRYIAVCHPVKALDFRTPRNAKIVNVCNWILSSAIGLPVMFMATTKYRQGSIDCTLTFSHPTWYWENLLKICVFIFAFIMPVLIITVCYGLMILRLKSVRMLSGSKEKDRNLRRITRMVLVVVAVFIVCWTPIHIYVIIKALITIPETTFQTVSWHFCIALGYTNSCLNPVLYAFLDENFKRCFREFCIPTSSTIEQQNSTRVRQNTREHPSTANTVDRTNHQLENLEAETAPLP

In general, IC50 refers to the concentration that gives 50% inhibition. As to `C=CCNC(Cc1c(C)cc(O)cc1C)C(=O)NCCCCCCNC(=O)C(Cc1c(C)cc(O)cc1C)NCC=C` (centres unmarked) [compound 49, 1,6-bis[N-allyl-Dmt-NH]hexane], the IC50 at δ-opioid receptor (MVD) and at μ-opioid receptor (GPI) was more than 10000 nM in each case. In addition, the results for the Ki on δ-opioid receptor and at μ-opioid receptor were 51.5 nM and 12.4 nM, respectively.
As to `C=CCNC(Cc1c(C)cc(O)cc1C)C(=O)NCCCc1[nH]c(=O)c(CCCNC(=O)C(Cc2c(C)cc(O)cc2C)NCC=C)nc1C` (centres unmarked) [compound 50, 3,6-bis[N-allyl-Dmt-NH-propyl]-5-methyl-2(1H)-pyrazinone], the IC50 on δ-opioid receptor (MVD) and on μ-opioid receptor (GPI) was more than 10000 nM each time. Besides, the Ki on δ-opioid receptor was 77.8 nM; at μ-opioid receptor, 6.94 nM.
In the case of `Cc1cc(O)cc(C)c1C[C@H](N)C(=O)NCCNC(=O)[C@@H](N)Cc1c(C)cc(O)cc1C` [compound 51, Dmt-NH-(CH2)2-NH-Dmt], the IC50 is more than 10000 nM on δ-opioid receptor (MVD) and 2840 nM at μ-opioid receptor (GPI). Also, the Ki on δ-opioid receptor is 116 nM; on μ-opioid receptor, 1.43 nM.
Turning to `Cc1cc(O)cc(C)c1C[C@H](N)C(=O)NCCCCNC(=O)[C@@H](N)Cc1c(C)cc(O)cc1C` [compound 52, Dmt-NH-(CH2)4-NH-Dmt], the IC50 is more than 10000 nM on δ-opioid receptor (MVD) and 5.33 nM on μ-opioid receptor (GPI). Also, the figures for the Ki at δ-opioid receptor and at μ-opioid receptor were 53.4 nM and 0.041 nM, respectively.
As to `Cc1cc(O)cc(C)c1C[C@H](N)C(=O)NCCCCCCNC(=O)[C@@H](N)Cc1c(C)cc(O)cc1C` [compound 53, Dmt-NH-(CH2)6-NH-Dmt], the figures for the IC50 at δ-opioid receptor (MVD) and on μ-opioid receptor (GPI) were more than 10000 nM and 3.08 nM, respectively. The Ki on δ-opioid receptor is 46.1 nM; at μ-opioid receptor, 0.053 nM.
For the molecule `Cc1cc(O)cc(C)c1C[C@H](N)C(=O)NCCCCCCCCNC(=O)[C@@H](N)Cc1c(C)cc(O)cc1C` [compound 54, Dmt-NH-(CH2)8-NH-Dmt], the concentration for half-maximal inhibition (IC50) at δ-opioid receptor (MVD) was more than 10000 nM; on μ-opioid receptor (GPI) it was 53.7 nM. Moreover, the Ki was 14.8 nM on δ-opioid receptor and 0.19 nM at μ-opioid receptor.
As to `Cc1cc(O)cc(C)c1CC(N)C(=O)NCc1[nH]c(=O)c(CNC(=O)C(N)Cc2c(C)cc(O)cc2C)nc1C` (centres unmarked) [compound 55, 3,6-bis[Dmt-NH-CH2]-5-methyl-2(1H)-pyrazinone], the IC50 at δ-opioid receptor (MVD) is more than 10000 nM; at μ-opioid receptor (GPI), 1700 nM. The Ki on δ-opioid receptor is 15.7 nM; at μ-opioid receptor, 1.16 nM.
Consider `Cc1cc(O)cc(C)c1CC(N)C(=O)NCCCc1[nH]c(=O)c(CCCNC(=O)C(N)Cc2c(C)cc(O)cc2C)nc1C` (centres unmarked) [compound 57, 3,6-bis[Dmt-NH(CH2)3]-5-methyl-2(1H)-pyrazinone], for which the IC50 was more than 10000 nM on δ-opioid receptor (MVD) and 1.33 nM on μ-opioid receptor (GPI). The Ki is 13.2 nM on δ-opioid receptor and 0.042 nM on μ-opioid receptor.
As for `Cc1cc(O)cc(C)c1CC(N)C(=O)NCCCCc1[nH]c(=O)c(CCCCNC(=O)C(N)Cc2c(C)cc(O)cc2C)nc1C` (centres unmarked) [compound 58, 3,6-bis[Dmt-NH(CH2)4]-5-methyl-2(1H)-pyrazinone], the IC50 on δ-opioid receptor (MVD) was 41.5 nM; at μ-opioid receptor (GPI), 1.9 nM. For the same molecule, the Ki at δ-opioid receptor is 23.2 nM; on μ-opioid receptor it was 0.114 nM.
As to `Cc1cc(O)cc(C)c1CC(N)C(=O)N1Cc2ccccc2CC1C(=O)NCc1[nH]c(=O)c(CNC(=O)C2Cc3ccccc3CN2C(=O)C(N)Cc2c(C)cc(O)cc2C)nc1C` (stereo not drawn) [compound 59, 3,6-bis[Dmt-Tic-NH-CH2]-5-methyl-2(1H)-pyrazinone], the IC50 on δ-opioid receptor (MVD) and on μ-opioid receptor (GPI) was more than 10000 nM in each case. Also, the Ki was 0.163 nM on δ-opioid receptor and 3.76 nM at μ-opioid receptor.
`Cc1cc(O)cc(C)c1CC(N)C(=O)N1Cc2ccccc2CC1C(=O)NCCc1[nH]c(=O)c(CCNC(=O)C2Cc3ccccc3CN2C(=O)C(N)Cc2c(C)cc(O)cc2C)nc1C` (stereo not drawn) [compound 60, 3,6-bis[Dmt-Tic-NH(CH2)2]-5-methyl-2(1H)-pyrazinone]: the IC50 on δ-opioid receptor (MVD) and at μ-opioid receptor (GPI) was more than 10000 nM in each case. Further, the Ki is 0.095 nM at δ-opioid receptor and 2.83 nM on μ-opioid receptor.
